Tests used:
[1] = test system: human pancreatic line MIA PaCa-2; assay: MIA PaCa-2 pancreatic xenograft model in NOD-scid mice, humanized antibodies; format: in vivo; settings: gemcitabine 400 mg/kg ip 7 and 14 days after the inoculation
Protocol: 5×10^6 cells of human pancreatic line MIA PaCa-2 were suspended in PBS containing 50% GFR-Matrigel (Corning Inc., Cat. 354230), and the suspension was inoculated subcutaneously into the axilla of 4 week-old female NOD-scid mice (NOD. CB17-Prkdc/J, purchased from CHARLES RIVER LABORATORIES JAPAN, INC). […] As a control drug, gemcitabine (purchased from Eli Lilly Japan K.K.) that is a standard therapeutic agent for pancreatic cancer was administered intraperitoneally to cancer-bearing mice at 400 mg/kg 7 and 14 days after the inoculation (n=5). The major axis and the minor axis of the inoculated tumor were measured twice a week using an electronic digital caliper (available from MITUTOYO CORPORATION) to calculate the tumor volume by the following formula.

[2] = test system: gemcitabine-resistant MIA PaCa-2 tumors; assay: Gemcitabine-resistant MIA PaCa-2 pancreatic cancer tumor model in NOD-scid mice; format: in vivo, human
From the text: The antitumor efficacy of the CD147 antibody in a gemcitabine-resistant pancreatic cancer tumor model was investigated. 5×10^6 cells of human pancreatic line MIA PaCa-2 were suspended in PBS containing 50% GFR-Matrigel (Corning Inc., Cat. 354230), and the suspension was inoculated subcutaneously into the axilla of 5 week-old female NOD-scid mice (NOD. CB17-Prkdc/J, CHARLES RIVER LABORATORIES JAPAN, INC). Gemcitabine (Eli Lilly Japan K.K.), which is a standard therapeutic agent for pancreatic cancer, was intraperitoneally administered at 400 mg/kg 6 days after the inoculation, and grouping of mice in which gemcitabine-resistant tumors were confirmed to grow was performed based on tumor size one week later. Gemcitabine was intraperitoneally administered to the control group at 400 mg/kg (n=5) 13 days (grouping date) and 20 days after the inoculation. […] The major axis and the minor axis of the inoculated tumor were measured twice a week using an electronic digital caliper (available from MITUTOYO CORPORATION) to calculate the tumor volume by the following formula. […]

[3] = test system: human pancreatic line MIA PaCa-2; assay: MIA PaCa-2 model in Nude mice, humanized antibodies with different binding activities; format: in vivo; settings: gemcitabine 400 mg/kg via the tail vein 3 and 10 days after the inoculation
Protocol: 5×10^6 cells of human pancreatic line MIA PaCa-2 were suspended in PBS containing 50% GFR-Matrigel (Corning Inc., Cat. 354230), and the suspension was inoculated subcutaneously into the axilla of 4-week old female Nude mice (BALB/c Slc-nu/nu, purchased from Japan SLC, Inc). […] As a control drug, gemcitabine (purchased from Eli Lilly Japan K.K.), which is a standard therapeutic agent for pancreatic cancer, was administered to cancer-bearing mice via the tail vein at 400 mg/kg 3 and 10 days after the inoculation (n=6). The major axis and the minor axis of the inoculated tumor were measured twice a week using an electronic digital caliper (available from MITUTOYO CORPORATION) to calculate the tumor volume by the following formula. Tumor volume (mm^3)=½×minor axis (mm)×minor axis (mm)×major axis (mm)

[4] = test system: human pancreatic line BxPC-3; assay: SMAD4-negative BxPC-3 pancreatic cancer-bearing model in BALB/c-nu mice; format: in vivo; settings: gemcitabine 200 mg/kg via the tail vein 8, 15, 22 days after the inoculation
From the text: The transcription factor, SMAD4, is known as one of the molecules important for activation of SMAD signaling (Zang, et al., Current Biology, 270-276, 1997). It is known that SMAD signaling is partially impaired due to genetic defects of SMAD4 in some pancreatic cancers (Hahn, et al., Science, 350-353, 1996). […] 2.5×10^6 cells of human pancreatic line BxPC-3 (ATCC, Cat. CRL-1687) were suspended in PBS containing […] (Corning Inc., Cat. 354234), and the suspension was inoculated subcutaneously into the axilla of 6 week-old female BALB/c-nu mouse (CAnN. Cg-Foxn1nu/CrlCrlj, purchased from CHARLES RIVER LABORATORIES JAPAN, INC). […] As a control drug, gemcitabine (Eli Lilly Japan K.K., Gemzar®) that is a therapeutic agent for pancreatic cancer was administered to mice bearing tumor via the tail vein at 200 mg/kg 8, 15, 22 days after the inoculation (n=5). The major axis and the minor axis of the inoculated tumor were measured twice a week using an electronic digital caliper (available from MITUTOYO CORPORATION) to calculate the tumor volume by the following formula. Tumor volume (mm^3)=½×minor axis (mm)×minor axis (mm)×major axis (mm)

Compound: Nc1ccn([C@@H]2O[C@H](CO)[C@@H](O)C2(F)F)c(=O)n1 [gemcitabine, reference compound]
- tumor disappearance (in words) [1]: no tumor disappearance was recognized
- tumor growth inhibition rate ([1]; NOD-scid mice): 71%
- average tumor size ([2]; gemcitabine 400 mg/kg ip 6, 13 and 20 days after the inoculation, 28 days after the inoculation): 1269 mm^3
- regressing tumors (in words) ([2]; gemcitabine 400 mg/kg ip alone): no regressing tumors were observed
- tumor growth inhibition rate [3]: 66%
- sensitivity of BxPC-3 tumor (in words) [4]: resistant

Reference: patent US11459387B2, “Anti-CD147 antibody” (DAIICHI SANKYO COMPANY, LIMITED, priority 2017, dated 2022)
